Assays:
[1] = molecular target: T1, human NK3 receptor (Homo sapiens, UniProt P29371); experiment: NK3 receptor efficacy and potency assay (FLIPR Calcium 4); type: cell-based; details: read-out: Potency (cIC50/nM)
T1 construct: expressed in transfected cells; membranes prepared from them
T1 sequence (P29371 1-465): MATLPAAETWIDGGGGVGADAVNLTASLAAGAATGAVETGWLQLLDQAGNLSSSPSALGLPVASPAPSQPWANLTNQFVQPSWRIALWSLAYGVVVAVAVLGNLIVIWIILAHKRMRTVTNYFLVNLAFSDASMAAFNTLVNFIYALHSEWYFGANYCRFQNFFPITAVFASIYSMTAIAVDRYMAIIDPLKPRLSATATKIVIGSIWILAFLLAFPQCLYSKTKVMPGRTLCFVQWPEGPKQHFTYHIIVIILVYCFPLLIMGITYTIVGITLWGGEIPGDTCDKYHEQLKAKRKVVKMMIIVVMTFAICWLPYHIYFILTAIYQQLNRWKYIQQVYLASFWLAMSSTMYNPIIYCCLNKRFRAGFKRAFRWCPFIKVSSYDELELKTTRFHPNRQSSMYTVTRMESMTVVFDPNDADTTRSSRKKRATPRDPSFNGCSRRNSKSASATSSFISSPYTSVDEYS
Procedure: Example 13 NK3 receptor efficacy and potency assay
BHK cells stably expressing the human NK3 receptor were seeded in 100 µl media in black walled clear-base 96-wells plates (Costar) aiming at a confluency of 95-100% at the day of assay. The assay was performed according to the FLIPR Calcium 4 Assay kit (Molecular Devices). At the day of the assay, the media was removed and the cells were washed once with the HBSS buffer (Hanks BSS buffer, pH 7,4 containing 20 mM Hepes) before 100 µl of a solution of the calcium assay reagent dissolved in the HBSS buffer containing 2,5 mM probinicid was added to the cells. The plates were incubated for 60 min at 34°C, 10% CO2 before use in the FLIPR for examination of fluorescence.
For efficacy and potency evaluation of compounds, these were diluted in HBSS buffer prior to test. For test of agonist activity, 25 µl of the diluted compound solution was added and the plate was analyzed for 5 minutes in the FLIPR. For test of antagonist activity, the plate was incubated for another 45 minutes before addition of 25 µl of the EC85 concentration ofNKB (app. 4 nM) as described above. The plates were subsequently analyzed for 5 minutes before the assay was terminated. The maximal increase in fluorescence over background following each ligand addition was determined.

[2] = molecular target: T1, human NK3 receptor; experiment: NK3 receptor binding assay (SPA-based competition binding with 125I-NKB); details: read-out: Affinity (Ki/nM); further: competition with app 0.02 nM 125I-NKB
Procedure: Example 12 NK3 receptor binding assay
Membranepreparation: BHK cells stably expressing the human NK3 receptor were seeded in harvesting plates in Dulbeccos MEM containing GlutaMax (862 mg/l), 1mM sodium pyruvate, 10% fetal calf serum, 1% Pen/Strep, 1 mg/ml G418 and were grown at 34 °C in a humidified atmosphere containing 10% CO2. To increase receptor expression, 10 µM trichotatin A was added to the media 24 hours before harvest of the cells at a confluency of app 90%. Prior to the harvesting, the cells were washed twice with PBS without Mg^2+ og Ca^2+ and subsequently scrapped of in 10 ml PBS pr harvesting plate. The cells suspension were centrifuged at 1500xG in three minutes before resuspension in 15 mM Tris-HCl pH 7,5 buffer containing 2 mM MgCl2; 0,3 mM EDTA and 1 mM EGTA (buffer A). The cell suspention was homogenised and subsequently centrifuged at 40000xG in 30 minutes. The membrane-pellet was resuspended in buffer A containing 250 mM sucrose, alliquoted and stored at ― 80 °C.
Affinity assay description: The assay was performed as a SPA-based competition-binding assay in a 50 mM Tris pH 7.4 assay buffer containing 120 mM NaCl, 3 mM MnCl2, 40 µg/ml bacitracin, 2 µg/ml Chymostatin, 1 µg/ml Phosphoramidon and 4 µg/ml Leupeptin. […] The assay plate was subsequently under agitation incubated for 90 min at RT. The plate was centrifugated 10 minutes at 500xG and counted in a topcounter 5 minuttes pr well.
The total binding, which comprised less than 5 % of added radioligand, was defined using assay buffer whereas the non-specific binding was defined in the presence of 1 µM osanetant. The non-specific binding constituted app 5 % of the total binding.

CC[C@H](NC(=O)c1c(C)n(C2CCCC2)c(=O)c2ccccc12)c1ccccc1 [Example 1a, 2-Cyclopentyl-3-methyl-1-oxo-1,2-dihydro-isoquinoline-4-carboxylic acid ((S)-1-phenylpropyl)-amide]
IC50 [1]: 570 nM | Ki [2]: 310 nM

CC[C@H](NC(=O)c1c(C)n(CCSC)c(=O)c2ccccc12)c1ccccc1 [Example 1q, 3-Methyl-2-(2-methylsulfanyl-ethyl)-1-oxo-1,2-dihydro-isoquinoline-4-carboxylic acid ((S)-1-phenyl-propyl)-amide]
IC50 [1]: 440 nM | Ki [2]: 200 nM

CC[C@H](NC(=O)c1c(C)n(NCC(C)C)c(=O)c2ccccc12)c1ccccc1 [Example 2d, 2-Isobutylamino-3-methyl-1-oxo-1,2-dihydro-isoquinoline-4-carboxylic acid ((S)-1-phenyl-propyl)-amide]
IC50 [1]: 230 nM | Ki [2]: 46 nM

CC[C@H](NC(=O)c1c(C)n(NCC(C)(C)C)c(=O)c2ccccc12)c1ccccc1 [Example 2e, 2-(2,2-Dimethyl-propylamino)-3-methyl-1-oxo-1,2-dihydro-isoquinoline-4-carboxylic acid ((S)-1-phenyl-propyl)-amide]
IC50 [1]: 580 nM | Ki [2]: 180 nM

Cc1c(C(=O)N[C@H](c2ccccc2)C2CC2)c2cccc(F)c2c(=O)n1NCC(C)C [Example 2j, 8-Fluoro-2-isobutylamino-3-methyl-1-oxo-1,2-dihydro-isoquinoline-4-carboxylic acid ((S)-cyclopropyl-phenyl-methyl)-amide]
Ki [2]: 23 nM

CCNn1c(C)c(C(=O)N[C@H](c2cccc(F)c2)C2CC2)c2cccc(F)c2c1=O [Example 2p, 2-Ethylamino-8-fluoro-3-methyl-1-oxo-1,2-dihydro-isoquinoline-4-carboxylic acid [(S)-cyclopropyl-(3-fluoro-phenyl)-methyl]-amide]
IC50 [1]: 27 nM | Ki [2]: 12 nM

CCCNn1c(C)c(C(=O)N[C@H](c2cccc(F)c2)C2CC2)c2cccc(F)c2c1=O [Example 2q, 8-Fluoro-3-methyl-1-oxo-2-propylamino-1,2-dihydro-isoquinoline-4-carboxylic acid [(S)-cyclopropyl-(3-fluoro-phenyl)-methyl]-amide]
Ki [2]: 7.4 nM

CCNn1c(CN2CCCC2=O)c(C(=O)N[C@H](c2cccc(F)c2)C2CC2)c2cccc(F)c2c1=O [Example 2r, 2-Ethylamino-8-fluoro-1-oxo-3-(2-oxo-pyrrolidin-1-ylmethyl)-1,2-dihydro-isoquinoline-4-carboxylic acid [(S)-cyclopropyl-(3-fluoro-phenyl)-methyl]-amide]
Ki [2]: 6.8 nM

COCCn1c(C)c(C(=O)N[C@H](c2cccc(F)c2)C2CC2)c2cccc(F)c2c1=O [Example 4f, 8-Fluoro-2-(2-methoxy-ethyl)-3-methyl-1-oxo-1,2-dihydro-isoquinoline-4-carboxylic acid [(S)-cyclopropyl-(3-fluoro-phenyl)-methyl]-amide]
IC50 [1]: 230 nM | Ki [2]: 76 nM

O=C(N[C@H](c1cccc(F)c1)C1CC1)c1c(CN2CCCC2=O)n(CCC(F)(F)F)c(=O)c2c(F)cccc12 [Example 4l, 8-Fluoro-1-oxo-3-(2-oxo-pyrrolidin-1-ylmethyl)-2-(3,3,3-trifluoro-propyl)-1,2-dihydro-isoquinoline-4-carboxylic acid [(S)-cyclopropyl-(3-fluoro-phenyl)-methyl]-amide]
IC50 [1]: 10 nM | Ki [2]: 9.3 nM

Cc1c(C(=O)N[C@H](c2cccc(F)c2)C2CCC2)c2cccc(F)c2c(=O)n1CCO [Example 4p, 8-Fluoro-2-(2-hydroxy-ethyl)-3-methyl-1-oxo-1,2-dihydro-isoquinoline-4-carboxylic acid [(S)-cyclobutyl-(3-fluoro-phenyl)-methyl]-amide]
IC50 [1]: 380 nM | Ki [2]: 160 nM

Cc1c(C(=O)NC(c2cccc(F)c2)C2CCC2)c2cccc(F)c2c(=O)n1C1CCOC1 [Example 4r, 8-Fluoro-3-methyl-1-oxo-2-(S)-tetrahydro-furan-3-yl-1,2-dihydro-isoquinoline-4-carboxylic acid [(S)-cyclobutyl-(3-fluoro-phenyl)-methyl]-amide]
IC50 [1]: 390 nM

CCOn1c(C)c(C(=O)N[C@H](c2cccc(F)c2)C2CCC2)c2cccc(F)c2c1=O [Example 4t, 2-Ethoxy-8-fluoro-3-methyl-1-oxo-1,2-dihydro-isoquinoline-4-carboxylic acid [(S)-cyclobutyl-(3-fluoro-phenyl)-methyl]-amide]
IC50 [1]: 180 nM | Ki [2]: 68 nM

Cc1c(C(=O)N[C@H](c2cccc(F)c2)C2CCC2)c2cccc(F)c2c(=O)n1C[C@H]1CCCN1 [Example 5d, 8-Fluoro-3-methyl-1-oxo-2-(R)-1pyrrolidin-2-ylmethyl-1,2-dihydro-isoquinoline-4-carboxylic acid [(S)-cyclobutyl-(3-fluoro-phenyl)-methyl]-amide]
IC50 [1]: 16 nM | Ki [2]: 25 nM

Cc1c(C(=O)N[C@H](c2cccc(F)c2)C2CC2)c2cccc(F)c2c(=O)n1[C@@H]1CCNC1 [Example 5g, 8-Fluoro-3-methyl-1-oxo-2-(R)-1-pyrrolidin-3-yl-1,2-dihydro-isoquinoline-4-carboxylic acid [(S)-cyclopropyl-(3-fluoro-phenyl)-methyl]-amide]
IC50 [1]: 910 nM

CCCn1c(CN2CCNCC2)c(C(=O)N[C@H](c2cccc(F)c2)C2CC2)c2cccc(F)c2c1=O [Example 6a, 8-Fluoro-1-oxo-3-piperazin-1-ylmethyl-2-propyl-1,2-dihydro-isoquinoline-4-carboxylic acid [(S)-cyclopropyl-(3-fluoro-phenyl)-methyl]-amide]
IC50 [1]: 7 nM | Ki [2]: 13 nM

CCCn1c(CN2CCNCC2)c(C(=O)N[C@H](c2cccc(F)c2)C2CCC2)c2cccc(F)c2c1=O [Example 6b, 8-Fluoro-1-oxo-3-piperazin-1-ylmethyl-2-propyl-1,2-dhydro-isoquinoline-4-carboxylic acid [(S)-cyclobutyl-(3-fluoro-phenyl)-methyl]-amide]
IC50 [1]: 18 nM | Ki [2]: 6.6 nM

CCCn1c(CN2CCCC2=O)c(C(=O)N[C@H](c2cccc(F)c2)C2CC2)c2cccc(F)c2c1=O [Example 6e, 8-Fluoro-1-oxo-3-(2-oxo-pyrrolidin-1-ylmethyl)-2-propyl-1,2-dihydro-isoquinoline-4-carboxylic acid [(S)-cyclopropyl-(3-fluoro-phenyl)-methyl]-amide]
IC50 [1]: 21 nM | Ki [2]: 9.8 nM

Cc1c(C(=O)N[C@H](c2cccc(F)c2)C2CC2)c2cccc(F)c2c(=O)n1C[C@@H]1CCCN1C [Example 7a, 8-Fluoro-3-methyl-2-((S)-1-methyl-pyrrolidin-2-ylmethyl)-1-oxo-1,2-dihydro-isoquinoline-4-carboxylic acid [(S)-cyclopropyl-(3-fluoro-phenyl)-methyl]-amide]
IC50 [1]: 130 nM | Ki [2]: 78 nM

Cc1c(C(=O)N[C@H](c2cccc(F)c2)C2CC2)c2cccc(F)c2c(=O)n1[C@@H]1CCN(C)C1 [Example 7i, 8-Fluoro-3-methyl-2-((R)-1-methyl-pyrrolidin-3-yl)-1-oxo-1,2-dihydro-isoquinoline-4-carboxylic acid [(S)-cyclopropyl-(3-fluoro-phenyl)-methyl]-amide]
IC50 [1]: 660 nM | Ki [2]: 90 nM
